US12077503B2, “Substituted cyclic amides and their use as herbicides” (FMC CORPORATION, priority 2015, dated 2024)

What was measured:
Assay type in all cases: in vivo
[1] = test system: barnyardgrass (Echinochloa crus-galli); experiment: Test G Pre-Emergence Protocol; conditions: Echinochloa crus-galli, pre-emergence, 312 h, evaluated after 13 days; for pest or weed control at 15.625 g/ha: 15.625 g ai/ha; for pest or weed control at 15.625 g/ha / pest or weed control at 250 g/ha: read-out: Barnyardgrass damage rating (100=total damage to plant; 0=no damage to plant); for pest or weed control at 62.5 g/ha: 62.5 g ai/ha, 100=total damage to plant, 0=no damage to plant, read-out: Barnyardgrass damage rating; for pest or weed control at 250 g/ha: 250 g ai/ha
Outline: (§1)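 Under a 24/16° C day/night regime with 14 h light and 65% humidity, sown pots were sprayed after one day with compound (15.625, 62.5 or 250 g/ha; 50:50 acetone/water, 0.5% Tween 20). Damage was assessed visually 13 days later, 0 to 100.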

[2] = test system: corn (Zea mays); experiment: Test G Pre-Emergence Protocol; conditions: Zea mays, pre-emergence, 312 h, evaluated after 13 days; for plant injury at 15.625 g/ha: 15.625 g ai/ha; for plant injury at 15.625 g/ha / plant injury at 250 g/ha: read-out: Corn damage rating (100=total damage to plant; 0=no damage to plant); for plant injury at 62.5 g/ha: 62.5 g ai/ha, 100=total damage to plant, 0=no damage to plant, read-out: Corn damage rating; for plant injury at 250 g/ha: 250 g ai/ha
Outline: as §1

[3] = test system: giant foxtail (Setaria faberi); experiment: Test G Pre-Emergence Protocol; conditions: Setaria faberi, pre-emergence, 312 h, evaluated after 13 days; for pest or weed control at 15.625 g/ha: 15.625 g ai/ha; for pest or weed control at 15.625 g/ha / pest or weed control at 250 g/ha: read-out: Foxtail, Giant damage rating (100=total damage to plant; 0=no damage to plant); for pest or weed control at 62.5 g/ha: 62.5 g ai/ha, 100=total damage to plant, 0=no damage to plant, read-out: Foxtail, Giant damage rating; for pest or weed control at 250 g/ha: 250 g ai/ha
Outline: as §1

[4] = test system: ivy-leaved morning glory (Ipomoea hederacea); experiment: Test G Pre-Emergence Protocol; conditions: Ipomoea, pre-emergence, 312 h, evaluated after 13 days; for pest or weed control at 15.625 g/ha: 15.625 g ai/ha; for pest or weed control at 15.625 g/ha / pest or weed control at 250 g/ha: read-out: Morningglory, Ivy-leaved damage rating (100=total damage to plant; 0=no damage to plant); for pest or weed control at 62.5 g/ha: 62.5 g ai/ha, 100=total damage to plant, 0=no damage to plant, read-out: Morningglory, Ivy-leaved damage rating; for pest or weed control at 250 g/ha: 250 g ai/ha
Outline: as §1

[5] = test system: redroot pigweed (Amaranthus retroflexus); experiment: Test G Pre-Emergence Protocol; conditions: Amaranthus retroflexus, pre-emergence, 312 h, evaluated after 13 days; for pest or weed control at 15.625 g/ha: 15.625 g ai/ha; for pest or weed control at 15.625 g/ha / pest or weed control at 250 g/ha: read-out: Pigweed, Redroot damage rating (100=total damage to plant; 0=no damage to plant); for pest or weed control at 62.5 g/ha: 62.5 g ai/ha, 100=total damage to plant, 0=no damage to plant, read-out: Pigweed, Redroot damage rating; for pest or weed control at 250 g/ha: 250 g ai/ha
Outline: as §1

[6] = test system: velvetleaf (Abutilon theophrasti); experiment: Test G Pre-Emergence Protocol; conditions: Abutilon theophrasti, pre-emergence, 312 h, evaluated after 13 days; for pest or weed control at 15.625 g/ha: 15.625 g ai/ha; for pest or weed control at 15.625 g/ha / pest or weed control at 250 g/ha: read-out: Velvetleaf damage rating (100=total damage to plant; 0=no damage to plant); for pest or weed control at 62.5 g/ha: 62.5 g ai/ha, 100=total damage to plant, 0=no damage to plant, read-out: Velvetleaf damage rating; for pest or weed control at 250 g/ha: 250 g ai/ha
Outline: as §1

[7] = test system: barnyardgrass (Echinochloa crus-galli); experiment: Test G Post-Emergence Protocol; conditions: Echinochloa crus-galli, post-emergence, 312 h, read-out: Barnyardgrass damage rating; for pest or weed control at 15.625 g/ha: 15.625 g ai/ha, evaluated after 13 days (100=total damage to plant; 0=no damage to plant); for pest or weed control at 62.5 g/ha: 62.5 g ai/ha; for pest or weed control at 62.5 g/ha / pest or weed control at 250 g/ha: evaluated after 13 days, 100=total damage to plant, 0=no damage to plant; for pest or weed control at 250 g/ha: 250 g ai/ha
Outline: (§2)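 Eight days post-sowing, plants received a spray of test compound (acetone/water 50:50, 0.5% Tween 20) at 15.625, 62.5 or 250 g/ha. Glasshouse regime thereafter: 24/16 °C, 14 h light, 65% humidity. Assessment after 13 days on a 0–100 damage scale.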

[8] = test system: corn (Zea mays); experiment: Test G Post-Emergence Protocol; conditions: Zea mays, post-emergence, 312 h, read-out: Corn damage rating; for plant injury at 15.625 g/ha: 15.625 g ai/ha, evaluated after 13 days (100=total damage to plant; 0=no damage to plant); for plant injury at 62.5 g/ha: 62.5 g ai/ha; for plant injury at 62.5 g/ha / plant injury at 250 g/ha: evaluated after 13 days, 100=total damage to plant, 0=no damage to plant; for plant injury at 250 g/ha: 250 g ai/ha
Outline: as §2

[9] = test system: giant foxtail (Setaria faberi); experiment: Test G Post-Emergence Protocol; conditions: Setaria faberi, post-emergence, 312 h, read-out: Foxtail, Giant damage rating; for pest or weed control at 15.625 g/ha: 15.625 g ai/ha, evaluated after 13 days (100=total damage to plant; 0=no damage to plant); for pest or weed control at 62.5 g/ha: 62.5 g ai/ha; for pest or weed control at 62.5 g/ha / pest or weed control at 250 g/ha: evaluated after 13 days, 100=total damage to plant, 0=no damage to plant; for pest or weed control at 250 g/ha: 250 g ai/ha
Outline: as §2

[10] = test system: ivy-leaved morning glory (Ipomoea hederacea); experiment: Test G Post-Emergence Protocol; conditions: Ipomoea, post-emergence, 312 h, read-out: Morningglory, Ivy-leaved damage rating; for pest or weed control at 15.625 g/ha: 15.625 g ai/ha, evaluated after 13 days (100=total damage to plant; 0=no damage to plant); for pest or weed control at 62.5 g/ha: 62.5 g ai/ha; for pest or weed control at 62.5 g/ha / pest or weed control at 250 g/ha: evaluated after 13 days, 100=total damage to plant, 0=no damage to plant; for pest or weed control at 250 g/ha: 250 g ai/ha
Outline: as §2

[11] = test system: redroot pigweed (Amaranthus retroflexus); experiment: Test G Post-Emergence Protocol; conditions: Amaranthus retroflexus, post-emergence, 312 h, read-out: Pigweed, Redroot damage rating; for pest or weed control at 15.625 g/ha: 15.625 g ai/ha, evaluated after 13 days (100=total damage to plant; 0=no damage to plant); for pest or weed control at 62.5 g/ha: 62.5 g ai/ha; for pest or weed control at 62.5 g/ha / pest or weed control at 250 g/ha: evaluated after 13 days, 100=total damage to plant, 0=no damage to plant; for pest or weed control at 250 g/ha: 250 g ai/ha
Outline: as §2

[12] = test system: velvetleaf (Abutilon theophrasti); experiment: Test G Post-Emergence Protocol; conditions: Abutilon theophrasti, post-emergence, 312 h, read-out: Velvetleaf damage rating; for pest or weed control at 15.625 g/ha: 15.625 g ai/ha, evaluated after 13 days (100=total damage to plant; 0=no damage to plant); for pest or weed control at 62.5 g/ha: 62.5 g ai/ha; for pest or weed control at 62.5 g/ha / pest or weed control at 250 g/ha: evaluated after 13 days, 100=total damage to plant, 0=no damage to plant; for pest or weed control at 250 g/ha: 250 g ai/ha
Outline: as §2

COc1cc(C2CN(C)C(=O)C2C(=O)Nc2cccc(F)c2F)cc(Cl)c1OC (stereo not drawn) [Compound 1704]
pest or weed control at 15.625 g/ha [1]: 40%
pest or weed control at 62.5 g/ha [1]: 70%
pest or weed control at 250 g/ha [1]: 80%
plant injury at 15.625 g/ha [2]: 0%
plant injury at 62.5 g/ha [2]: 50%
plant injury at 250 g/ha [2]: 80%
pest or weed control at 15.625 g/ha [3]: 50%
pest or weed control at 62.5 g/ha [3]: 80%
pest or weed control at 250 g/ha [3]: 80%
pest or weed control at 15.625 g/ha [4]: 0%
pest or weed control at 62.5 g/ha [4]: 0%
pest or weed control at 250 g/ha [4]: 30%
pest or weed control at 15.625 g/ha [5]: 0%
pest or weed control at 62.5 g/ha [5]: 20%
pest or weed control at 250 g/ha [5]: 0%
pest or weed control at 15.625 g/ha [6]: 0%
pest or weed control at 62.5 g/ha [6]: 0%
pest or weed control at 250 g/ha [6]: 10%
pest or weed control at 15.625 g/ha [7]: 40%
pest or weed control at 62.5 g/ha [7]: 70%
pest or weed control at 250 g/ha [7]: 80%
plant injury at 15.625 g/ha [8]: 0%
plant injury at 62.5 g/ha [8]: 20%
plant injury at 250 g/ha [8]: 80%
pest or weed control at 15.625 g/ha [9]: 70%
pest or weed control at 62.5 g/ha [9]: 80%
pest or weed control at 250 g/ha [9]: 80%
pest or weed control at 15.625 g/ha [10]: 30%
pest or weed control at 62.5 g/ha [10]: 20%
pest or weed control at 250 g/ha [10]: 70%
pest or weed control at 15.625 g/ha [11]: 0%
pest or weed control at 62.5 g/ha [11]: 10%
pest or weed control at 250 g/ha [11]: 10%
pest or weed control at 15.625 g/ha [12]: 0%
pest or weed control at 62.5 g/ha [12]: 0%
pest or weed control at 250 g/ha [12]: 20%

COc1cc(C2CN(C)C(=O)C2C(=O)Nc2cccc(F)c2F)cc(F)c1F (stereo not drawn) [Compound 1706]
pest or weed control at 15.625 g/ha [1]: 40%
pest or weed control at 62.5 g/ha [1]: 60%
pest or weed control at 250 g/ha [1]: 80%
plant injury at 15.625 g/ha [2]: 0%
plant injury at 62.5 g/ha [2]: 10%
plant injury at 250 g/ha [2]: 40%
pest or weed control at 15.625 g/ha [3]: 50%
pest or weed control at 62.5 g/ha [3]: 70%
pest or weed control at 250 g/ha [3]: 90%
pest or weed control at 15.625 g/ha [4]: 0%
pest or weed control at 62.5 g/ha [4]: 0%
pest or weed control at 250 g/ha [4]: 0%
pest or weed control at 15.625 g/ha [5]: 0%
pest or weed control at 62.5 g/ha [5]: 0%
pest or weed control at 250 g/ha [5]: 20%
pest or weed control at 15.625 g/ha [6]: 0%
pest or weed control at 62.5 g/ha [6]: 0%
pest or weed control at 250 g/ha [6]: 10%
pest or weed control at 15.625 g/ha [7]: 40%
pest or weed control at 62.5 g/ha [7]: 60%
pest or weed control at 250 g/ha [7]: 80%
plant injury at 15.625 g/ha [8]: 0%
plant injury at 62.5 g/ha [8]: 0%
plant injury at 250 g/ha [8]: 70%
pest or weed control at 15.625 g/ha [9]: 70%
pest or weed control at 62.5 g/ha [9]: 80%
pest or weed control at 250 g/ha [9]: 80%
pest or weed control at 15.625 g/ha [10]: 20%
pest or weed control at 62.5 g/ha [10]: 0%
pest or weed control at 250 g/ha [10]: 60%
pest or weed control at 15.625 g/ha [11]: 0%
pest or weed control at 62.5 g/ha [11]: 10%
pest or weed control at 250 g/ha [11]: 20%
pest or weed control at 15.625 g/ha [12]: 0%
pest or weed control at 62.5 g/ha [12]: 20%
pest or weed control at 250 g/ha [12]: 20%
